Data published in patent US10787443B2, “RAF-degrading conjugate compounds” (ZAMBONI CHEM SOLUTIONS INC., priority 2017, dated 2020).

Tested on: GST-Braf kinase domain and biotinylated E3 substrate adapter (VHL/EloB/EloC complex or CRBN318-425)
Experiment: Dimerization assay (AlphaScreen/AlphaLisa), RAF/E3 dimerization
Assay type: binding
Conditions: Table 17; relative value; compounds 4 fold serial dilutions from 20 μM

Structure (SMILES)	RAF/E3 Dimerization
O=C1CCC(N2C(=O)c3cccc(NC(=O)CCCCCn4cc(COCCOCCOCCNC(=O)c5cc(Oc6ccc(NC(=O)Nc7ccc(Cl)c(C(F)(F)F)c7)cc6)ccn5)nn4)c3C2=O)C(=O)N1 (centres unmarked) [Compound 2.027, 4-(4-(3-(4-chloro-3-(trifluoromethyl)phenyl)ureido)phenoxy)-N-(2-(2-(2-((1-(6-((2-(2,6-dioxopiperidin-3-yl)-1,3-dioxoisoindolin-4-yl)amino)-6-oxohexyl)-1H-1,2,3-triazol-4-yl)methoxy)ethoxy)ethoxy)ethyl)picolinamide]	++ (25% > RAF/E3 Dimerization ≥ 5%)
O=C1CCC(N2C(=O)c3cccc(NC(=O)CCCCCn4cc(COCCOCCOCCOCCOCCNC(=O)c5cc(Oc6ccc(NC(=O)Nc7ccc(Cl)c(C(F)(F)F)c7)cc6)ccn5)nn4)c3C2=O)C(=O)N1 (centres unmarked) [Compound 2.028, 4-(4-(3-(4-chloro-3-(trifluoromethyl)phenyl)ureido)phenoxy)-N-(1-(1-(6-((2-(2,6-dioxopiperidin-3-yl)-1,3-dioxoisoindolin-4-yl)amino)-6-oxohexyl)-1H-1,2,3-triazol-4-yl)-2,5,8,11,14-pentaoxahexadecan-16-yl)picolinamide]	++ (25% > RAF/E3 Dimerization ≥ 5%)
O=C1CCC(N2C(=O)c3cccc(CCCOCCNC(=O)c4cc(Oc5ccc(NC(=O)Nc6ccc(Cl)c(C(F)(F)F)c6)cc5)ccn4)c3C2=O)C(=O)N1 (centres unmarked) [Compound 2.029, 4-(4-(3-(4-chloro-3-(trifluoromethyl)phenyl)ureido)phenoxy)-N-(2-(3-(2-(2,6-dioxopiperidin-3-yl)-1,3-dioxoisoindolin-4-yl)propoxy)ethyl)picolinamide]	+ (5% > RAF/E3 Dimerization)
O=C1CCC(N2C(=O)c3cccc(CCCOCCOCCNC(=O)c4cc(Oc5ccc(NC(=O)Nc6ccc(Cl)c(C(F)(F)F)c6)cc5)ccn4)c3C2=O)C(=O)N1 (centres unmarked) [Compound 2.030, 4-(4-(3-(4-chloro-3-(trifluoromethyl)phenyl)ureido)phenoxy)-N-(2-(2-(3-(2-(2,6-dioxopiperidin-3-yl)-1,3-dioxoisoindolin-4-yl)propoxy)ethoxy)ethyl)picolinamide]	++ (25% > RAF/E3 Dimerization ≥ 5%)
O=C1CCC(N2Cc3c(CCCCCCNC(=O)c4cc(Oc5ccc(NC(=O)Nc6ccc(Cl)c(C(F)(F)F)c6)cc5)ccn4)cccc3C2=O)C(=O)N1 (centres unmarked) [Compound 2.031, 4-(4-(3-(4-chloro-3-(trifluoromethyl)phenyl)ureido)phenoxy)-N-(6-(2-(2,6-dioxopiperidin-3-yl)-1-oxoisoindolin-4-yl)hexyl)picolinamide]	+ (5% > RAF/E3 Dimerization)
O=C1CCC(N2Cc3c(CCCOCCNC(=O)c4cc(Oc5ccc(NC(=O)Nc6ccc(Cl)c(C(F)(F)F)c6)cc5)ccn4)cccc3C2=O)C(=O)N1 (centres unmarked) [Compound 2.032, 4-(4-(3-(4-chloro-3-(trifluoromethyl)phenyl)ureido)phenoxy)-N-(2-(3-(2-(2,6-dioxopiperidin-3-yl)-1-oxoisoindolin-4-yl)propoxy)ethyl)picolinamide]	+ (5% > RAF/E3 Dimerization)
O=C1CCC(N2Cc3c(CCCOCCOCCNC(=O)c4cc(Oc5ccc(NC(=O)Nc6ccc(Cl)c(C(F)(F)F)c6)cc5)ccn4)cccc3C2=O)C(=O)N1 (centres unmarked) [Compound 2.033, 4-(4-(3-(4-chloro-3-(trifluoromethyl)phenyl)ureido)phenoxy)-N-(2-(2-(3-(2-(2,6-dioxopiperidin-3-yl)-1-oxoisoindolin-4-yl)propoxy)ethoxy)ethyl)picolinamide]	++ (25% > RAF/E3 Dimerization ≥ 5%)
O=C1CCC(N2Cc3c(CCCCCCOCCOCCNC(=O)c4cc(Oc5ccc(NC(=O)Nc6ccc(Cl)c(C(F)(F)F)c6)cc5)ccn4)cccc3C2=O)C(=O)N1 (centres unmarked) [Compound 2.034, 4-(4-(3-(4-chloro-3-(trifluoromethyl)phenyl)ureido)phenoxy)-N-(2-(2-((6-(2-(2,6-dioxopiperidin-3-yl)-1-oxoisoindolin-4-yl)hexyl)oxy)ethoxy)ethyl)picolinamide]	++ (25% > RAF/E3 Dimerization ≥ 5%)
CCCCCCNC(=O)Nc1cc(-c2cc3cnc(NCCCCc4cn(CCCCCC(=O)Nc5cccc6c5C(=O)N(C5CCC(=O)NC5=O)C6=O)nn4)nc3nc2C)c(C)cc1F (centres unmarked) [Compound 2.036, N-(2-(2,6-dioxopiperidin-3-yl)-1,3-dioxoisoindolin-4-yl)-6-(4-(4-((6-(4-fluoro-5-(3-hexylureido)-2-methylphenyl)-7-methylpyrido[2,3-d]pyrimidin-2-yl)amino)butyl)-1H-1,2,3-triazol-1-yl)hexanamide]	++ (25% > RAF/E3 Dimerization ≥ 5%)
CCCCCCNC(=O)Nc1cc(-c2cc3cnc(NCCCCc4cn(CCCCCC(=O)N[C@@H](C(=O)N5C[C@H](O)C[C@H]5C(=O)N[C@@H](C)c5ccc(-c6scnc6C)cc5)C(C)(C)C)nn4)nc3nc2C)c(C)cc1F [Compound 2.037, (2S,4R)-1-((R)-2-(6-(4-(4-((6-(4-fluoro-5-(3-hexylureido)-2-methylphenyl)-7-methylpyrido[2,3-d]pyrimidin-2-yl)amino)butyl)-1H-1,2,3-triazol-1-yl)hexanamido)-3,3-dimethylbutanoyl)-4-hydroxy-N—((S)-1-(4-(4-methylthiazol-5-yl)phenyl)ethyl)pyrrolidine-2-carboxamide]	++++ (75% > RAF/E3 Dimerization ≥ 50%)
CCCCCCNC(=O)Nc1cc(-c2cc3cnc(NCCCCc4cn(CCCCC(=O)N[C@@H](C(=O)N5C[C@H](O)C[C@H]5C(=O)N[C@@H](C)c5ccc(-c6scnc6C)cc5)C(C)(C)C)nn4)nc3nc2C)c(C)cc1F [Compound 2.038, (2S,4R)-1-((R)-2-(5-(4-(4-((6-(4-fluoro-5-(3-hexylureido)-2-methylphenyl)-7-methylpyrido[2,3-d]pyrimidin-2-yl)amino)butyl)-1H-1,2,3-triazol-1-yl)pentanamido)-3,3-dimethylbutanoyl)-4-hydroxy-N—((S)-1-(4-(4-methylthiazol-5-yl)phenyl)ethyl)pyrrolidine-2-carboxamide]	+++ (50% > RAF/E3 Dimerization ≥ 25)
CCCCCCNC(=O)Nc1cc(-c2cc3cnc(NCCOCCOCc4cn(CCCCCC(=O)N[C@@H](C(=O)N5C[C@H](O)C[C@H]5C(=O)N[C@@H](C)c5ccc(-c6scnc6C)cc5)C(C)(C)C)nn4)nc3nc2C)c(C)cc1F [Compound 2.039, (2S,4R)-1-((R)-2-(6-(4-((2-(2-((6-(4-fluoro-5-(3-hexylureido)-2-methylphenyl)-7-methylpyrido[2,3-d]pyrimidin-2-yl)amino)ethoxy)ethoxy)methyl)-1H-1,2,3-triazol-1-yl)hexanamido)-3,3-dimethylbutanoyl)-4-hydroxy-N—((S)-1-(4-(4-methylthiazol-5-yl)phenyl)ethyl)pyrrolidine-2-carboxamide]	+++++ (RAF/E3 Dimerization ≥75%)
CNc1ncc2cc(-c3cc(NC(=O)NCCOCCOCCOCCOCCOCC(=O)N[C@@H](C(=O)N4C[C@H](O)C[C@H]4C(=O)N[C@@H](C)c4ccc(-c5scnc5C)cc4)C(C)(C)C)c(F)cc3C)c(C)nc2n1 [Compound 2.040, (2S,4R)-1-((R)-21-(tert-butyl)-1-((2-fluoro-4-methyl-5-(7-methyl-2-(methylamino)pyrido[2,3-d]pyrimidin-6-yl)phenyl)amino)-1,19-dioxo-5,8,11,14,17-pentaoxa-2,20-diazadocosan-22-oyl)-4-hydroxy-N—((S)-1-(4-(4-methylthiazol-5-yl)phenyl)ethyl)pyrrolidine-2-carboxamide]	+ (5% > RAF/E3 Dimerization)
CNc1ncc2cc(-c3cc(NC(=O)NCCOCCOCCOCC(=O)N[C@@H](C(=O)N4C[C@H](O)C[C@H]4C(=O)N[C@@H](C)c4ccc(-c5scnc5C)cc4)C(C)(C)C)c(F)cc3C)c(C)nc2n1 [Compound 2.041, (2S,4R)-1-((R)-15-(tert-butyl)-1-((2-fluoro-4-methyl-5-(7-methyl-2-(methylamino)pyrido[2,3-d]pyrimidin-6-yl)phenyl)amino)-1,13-dioxo-5,8,11-trioxa-2,14-diazahexadecan-16-oyl)-4-hydroxy-N—((S)-1-(4-(4-methylthiazol-5-yl)phenyl)ethyl)pyrrolidine-2-carboxamide]	+ (5% > RAF/E3 Dimerization)
CNc1ncc2cc(-c3cc(NC(=O)NCCOCCOCC(=O)N[C@@H](C(=O)N4C[C@H](O)C[C@H]4C(=O)N[C@@H](C)c4ccc(-c5scnc5C)cc4)C(C)(C)C)c(F)cc3C)c(C)nc2n1 [Compound 2.042, (2S,4R)-1-((R)-12-(tert-butyl)-1-((2-fluoro-4-methyl-5-(7-methyl-2-(methylamino)pyrido[2,3-d]pyrimidin-6-yl)phenyl)amino)-1,10-dioxo-5,8-dioxa-2,11-diazatridecan-13-oyl)-4-hydroxy-N—((S)-1-(4-(4-methylthiazol-5-yl)phenyl)ethyl)pyrrolidine-2-carboxamide]	+ (5% > RAF/E3 Dimerization)
CNc1ncc2cc(-c3cc(NC(=O)NCCCCCCOCCOCCOCCOCC(=O)N[C@@H](C(=O)N4C[C@H](O)C[C@H]4C(=O)N[C@@H](C)c4ccc(-c5scnc5C)cc4)C(C)(C)C)c(F)cc3C)c(C)nc2n1 [Compound 2.043, (2S,4R)-1-((R)-22-(tert-butyl)-1-((2-fluoro-4-methyl-5-(7-methyl-2-(methylamino)pyrido[2,3-d]pyrimidin-6-yl)phenyl)amino)-1,20-dioxo-9,12,15,18-tetraoxa-2,21-diazatricosan-23-oyl)-4-hydroxy-N—((S)-1-(4-(4-methylthiazol-5-yl)phenyl)ethyl)pyrrolidine-2-carboxamide]	++ (25% > RAF/E3 Dimerization ≥ 5%)
CC(NC(=O)c1ncnc(NCc2cn(CCCCCC(=O)Nc3cccc4c3C(=O)N(C3CCC(=O)NC3=O)C4=O)nn2)c1Cl)c1ncc(C(=O)Nc2cc(C(F)(F)F)c(Cl)cn2)s1 (centres unmarked) [Compound 2.044, N-(5-chloro-4-(trifluoromethyl)pyridin-2-yl)-2-(1-(5-chloro-6-(((1-(6-((2-(2,6-dioxopiperidin-3-yl)-1,3-dioxoisoindolin-4-yl)amino)-6-oxohexyl)-H-1,2,3-triazol-4-yl)methyl)amino)pyrimidine-4-carboxamido)ethyl)thiazole-5-carboxamide]	+ (5% > RAF/E3 Dimerization)
